Reference: paper PMC10610885, “Discovery of an Insect Neuroactive Helix Ring Peptide from Ant Venom” (Toxins, 2023)
Read-outs that look alike come from different tables or passages of the source.

Key:
blowfly Lucilia caesar [1] = details: L. caesar, 1 h post injection; cited from earlier work
Procedure: Table 2 Neuroactivity of ant venom peptides on blowfly species (Lucilia spp.) ranked by PD50 values 1 h post injection. | column: PD50 [1 h] *

[2] = cited from earlier work
Procedure: Table 2 Neuroactivity of ant venom peptides on blowfly species (Lucilia spp.) ranked by PD50 values 1 h post injection. | column: Cytotoxicity

blowfly Lucilia caesar [3] = test: Blowfly paralytic assay, intrathoracic injection; type: in vivo; details: L. caesar; for PD50 [1 h]: 1 h post injection, mean ± SEM, n = 3, ten flies per dose
Procedure: (§1) In this study, we screened the neurotoxic activity of U11 when injected into a panel of beneficial and pest insects such as honeybees, blowflies, and aphids. Blowfly is a dipteran model commonly used to evaluate the insecticidal potency of venom peptides. Blowfly maggots (Lucilia caesar) were bought from a fisheries shop (Euroloisir81, Lescure-d’Albigeois, France) and were kept at 25 °C until hatching. Flies 1–4 days post hatching were used for the injection assays. Honeybee (Apis mellifera) is a model of choice to assess the impact of a toxin against beneficial insects such as pollinators. The honeybee colonies used in this study belong to the Buckfast breed and were maintained at the University Champollion campus in Albi. Adult foraging honeybees were individually isolated in plastic vials and immediately injected. Assays on blowflies and honeybees were conducted by lateral intrathoracic injection of peptides dissolved in ultra-pure water at several concentrations (from 0.005 to 0.52 mM for L. caesar and from 0.002 to 1 mM for A. mellifera) by using a 1.0 mL Hamilton Syringe (1000 Series Gastight, Hamilton Company, Reno, NV, USA) with a fixed 25 gauge needle attached to an Arnold hand microapplicator (Burkard Manufacturing Co., Ltd., Rickmansworth, UK). Each fly/bee received 1 µL of peptide solution and was individually housed in a 2 mL tube with 3 µL of 5% glucose solution. Paralytic activity was monitored at 1 h and 24 h after injection while lethality was monitored only at 24 h. […] Ten flies/honeybees were used for each toxicity experiment and for the appropriate control (ultrapure water solution), and the experiment was repeated three times for each dose. Dose–response data were analyzed as detailed by Touchard et al.. The pea aphids A. pisum used in this study were obtained from a long-established parthenogenetic clone (LL01). Aphids were kept on young broad bean plants (Vicia faba, L. cv. Aquadulce) at 21 °C with a photoperiod of 16 h light 8 h dark, allowing us to maintain them as strictly parthenogenetic matrilines. To produce synchronized apterous nymphs, winged adults were allowed to reproduce on seedlings for 24 h. The resulting synchronized nymphs were reared for 9 days on plants before the beginning of the experiments (peptide injection or feeding). For the injection experiment, we used four groups of synchronized A9 aphids (30 per group): (i) non-injected aphids, (ii) aphids injected with sterilized ultra-pure water (injection control), (iii) aphids injected with PA1b inactivated peptide (non-toxic peptide injection control), and (iv) aphids injected with the U11 peptide. […] Aphids were monitored daily for 7 days after injection and their survival and behavior regularly checked, following the protocol developed by Ribeiro Lopes et al.. […]

[4] = system: honeybees (Apis mellifera); test: Honeybee paralytic assay, intrathoracic injection; type: in vivo; details: A. mellifera, n = 3
Procedure: In this study, we screened the neurotoxic activity of U11 when injected into a panel of beneficial and pest insects such as honeybees, blowflies, and aphids. Blowfly is a dipteran model commonly used to evaluate the insecticidal potency of venom peptides. Blowfly maggots (Lucilia caesar) were bought from a fisheries shop (Euroloisir81, Lescure-d’Albigeois, France) and were kept at 25 °C until hatching. Flies 1–4 days post hatching were used for the injection assays. Honeybee (Apis mellifera) is a model of choice to assess the impact of a toxin against beneficial insects such as pollinators. The honeybee colonies used in this study belong to the Buckfast breed and were maintained at the University Champollion campus in Albi. Adult foraging honeybees were individually isolated in plastic vials and immediately injected. […] Paralytic activity was monitored at 1 h and 24 h after injection while lethality was monitored only at 24 h. […] Dose–response data were analyzed as detailed by Touchard et al.. […] Aphids were monitored daily for 7 days after injection and their survival and behavior regularly checked, following the protocol developed by Ribeiro Lopes et al.. […]

[5] = system: aphids (Acyrthosiphon pisum); test: Aphid intra-abdominal injection assay; type: in vivo; details: A. pisum
Procedure: as §1, with “(LL01).” for “(LL01). Aphids were kept on young broad bean plants (Vicia faba, L. cv. Aquadulce) at 21 °C with a photoperiod of 16 h light 8 h dark, allowing us to maintain them as strictly parthenogenetic matrilines. To produce synchronized apterous nymphs, winged adults were allowed to reproduce on seedlings for 24 h. The resulting synchronized nymphs were reared for 9 days on plants before the beginning of the experiments (peptide injection or feeding). For the injection experiment, we used four groups of synchronized A9 aphids (30 per group): (i) non-injected aphids, (ii) aphids injected with sterilized ultra-pure water (injection control), (iii) aphids injected with PA1b inactivated peptide (non-toxic peptide injection control), and (iv) aphids injected with the U11 peptide.”

L. caesar = test: Ingestion assay on blowflies; type: in vivo, Lucilia caesar
Procedure: (§2) We used the same protocol used in Guo et al. for the ingestion assays with flies (L. caesar and D. melanogaster). Briefly, flies were placed in 2 mL microcentrifuge tubes right after hatching and were individually fed with 3 µL of 50% w/v sucrose solution (negative control) or sucrose solution containing the toxin. They were then kept at 25 °C. Mortality was recorded at 1, 2, 4, 24, 48, and 72 h after exposure to the tested compound. The surviving flies received 3 µL of 50% w/v sucrose solution without peptide each day until the end of the experiment. For each test, ten flies were used per treatment and each of them was replicated three times.

D. melanogaster = test: Ingestion assay on Drosophila; type: in vivo; details: fed at high doses in 50% sucrose (Figure S2)
Procedure: as §2

A. mellifera = test: Ingestion assay on honeybees; type: in vivo, Apis mellifera; details: force fed 5 µL sucrose solution with 8 mg/mL (110 nmol/g bee)
Procedure: The ingestion assays on honeybees were conducted by placing bees in 850 mL plastic storage boxes with 2 mL microcentrifuge tubes filled with 50% w/v sucrose solution and previously drilled for bee access. The boxes were kept at 25 °C in the dark and the bees were allowed to feed ad libitum on the sucrose solution. For each test, ten bees were used per treatment, and each of them was replicated three times. Lethality was recorded at 1, 2, 4, 24, and 48 h after exposure to U11 peptide.
For oral toxicity assays, insects were starved for 2 h prior testing. Bees were individually force fed with 5 µL of 50% w/v sucrose solution (negative control), or sucrose solution containing the toxin (8 mg/mL–110 nmol/g bee).

A. pisum = test: Feeding experiment on aphids; type: in vivo, Acyrthosiphon pisum; details: artificial diet with 500 μg/mL and 1 mg/mL, seven days
Procedure: For the feeding experiments on aphids, one-day-old aphids (corresponding to the first-instar nymphs N1) were placed for seven days in feeding chambers on 48 μL of a nutritive artificial diet specifically developed for A. pisum feeding, and development was completed with or without the peptide U11. The diets were changed after three days to avoid contamination. Ten N1 were deposited in the feeding chamber and three replicates were performed for each bioassay. Aphids’ mortality was assessed every day and compared between the different diets using a GLM linear regression model after observation of the residuals with a significance level of 5% on the R Studio software. Survival of aphids on two diets, completed, respectively, with U11 at 500 μg/mL and 1 mg/mL, was followed during seven days.

Sitophilus oryzae = test: Weevil toxicity test by ingestion; type: in vivo; details: S. oryzae, 800 μg/g of feed, two weeks
Procedure: S. oryzae toxicity tests were performed with the WAA42 strain as described previously. Briefly, the insects used for the bioassays were adults 2 to 3 weeks of age collected in one week experimental cohorts and placed in batches of 30 individuals on feed pellets containing the synthetic U11 tested in a whole grain-based diet. The tested concentration of the U11 was 800 μg/g of the feed. Bioactivity was assessed by daily insect survival during the first two weeks of contact with the test diet (27.5 °C, 70% room humidity) and by standard survival analysis.

[6] = system: S2 Drosophila embryonic cell line; test: CCK-8 cytotoxicity assay; type: cell-based
Procedure: (§3) The embryonic S2 Drosophila cell line (Thermofisher, Waltham, MA, USA) was maintained in Schneider’s insect medium (Sigma-Aldrich, Saint Louis, MO, USA) complemented with 10% heat-inactivated fetal bovine serum (FBS) (Sigma-Aldrich) and 1% Penicillin/Streptomycin (Sigma-Aldrich) at 25 °C without CO2 on TC-treated support (Corning®, Glendale, AZ, USA). The FBS was heat inactivated at 60 °C for 45 min. The cells were passaged every two days at about 90% confluence.
(§4) The CCK-8 (BosterBio, Pleasanton, CA, USA) and LDH (Dojindo, Rockville, MD, USA) assay kits were used to assess the cellular viability and mortality, with densities of 2 × 10^5 cells/mL and 6 × 10^5 cells/mL, respectively. Briefly, 100 µL of S2 cells at the appropriate densities were seeded in 96-well TC-treated plates and incubated for 24 h at 25 °C. […] Lysis Buffer, Triton 0.1%, and culture medium were used for controls. Viability and mortality cell assays were realized separately and in triplicates according to manufacturer’s instructions. The absorbances were measured using a BioTek Cytation 1 microplate reader (Agilent, Santa Clara, CA, USA) (i.e., 450 nm and 490 nm for CCK-8 and LDH assays, respectively). The percentages of living or dead cells were then calculated according to manufacturer’s recommendations.

[7] = system: S2 Drosophila embryonic cell line; test: LDH cytotoxicity assay; type: cell-based; details: S2 cells, 5 and 50 µM, 1 h and 24 h of incubation
Procedure: as §3, §4

S2 cells [8] = test: Membrane potential recorded by DiBAC4(3); type: cell-based, Drosophila; details: 10 µM, KCl 50 mM
Procedure: as §3
Variations of membrane potential were assessed using the fluorescent dye bis-(1,3-dibutybarbituric acid) (DiBAC4(3)) (Thermofisher) using a IX73 fluorescence microscope (Olympus, Japan). Then, 6 × 10^5 S2 cells were plated on 0.01% Poly-L-Lysine (Sigma-Aldrich) coated glass-bottom Petri dishes and allowed to adhere for 24 h before experiments. […] Baseline was recorded for 1 min before addition of KCl (50 Mm final) to achieve membrane depolarization. The results are presented as transformed data to obtain the relative fluorescence to the time of addition of the stimulus, according to the equation: Fx = Ft/F0, where Ft represents the fluorescent value at a specific time point and F0 represents the mean basal fluorescent value. To compare the different conditions, areas under the curve (AUC) after KCl addition were calculated (between 60 and 300 s).

S2 cells [9] = test: Intracellular Ca2+ mobilization, Fluo-4/AM probe; type: cell-based, Drosophila; details: 10 µM, 1 h preincubation, thapsigargin 2 µM then CaCl2 1.8 mM
Procedure: as §3
The [Ca^2+]i mobilization was measured with the Fluo-4/AM probe using the imaging reader Cytation 1 (BioTek, Agilent). Then, 6 × 10^5 S2 cells/mL were plated on glass-bottom Petri dishes and allowed to adhere for 24 h before experiments. Cells are incubated with 2 µM of Fluo-4/AM in cell culture medium with 2.5 mM probenecid for 1 h at 25 °C with 10 µM of U11 peptide. Then, cells were rinsed twice in Ca^2+-free buffer containing (in mM) 120 NaCl, 5 KCl, 4 MgCl2, 32.2 Sucrose, 10 HEPES, 0.1 EGTA, 2.5 probenecide (pH 7.2), incubated in Ca^2+-free buffer, and processed for measurement of cytoplasmic Ca^2+ concentration. […] Cell fluorescence was analyzed with CALIMA [59] […] Changes in the Ca^2+ cytosolic concentration were calculated from changes of fluorescence relative to time 0 (F = Ft/Ft0 (fluorescence at time = t/time = 0)).

bicarinalin [M-Tb1a]
PD50 [1 h] (blowfly Lucilia caesar [1]): 12.0 ± 1.0 nmol/g | Cytotoxicity [2]: Yes

U11-MYRTX-Tb1a
paralysis of flies 1 h after injection (screen) (blowfly Lucilia caesar [3]; intrathoracic injection of one high dose per peptide (Table 1: U8 54, U10 28, U11 27, U13 45 nmol. g^−1), 1 h, ten flies per replicate, three replicates): paralysis of all flies | PD50 [1 h] (blowfly Lucilia caesar [3]; intrathoracic injection): 1.78 ± 0.12 nmol/g | PD50 [1 h] (blowfly Lucilia caesar [3]; intrathoracic injection, listed as U11-Tb1a): 1.8 ± 0.1 nmol/g | PD50 24 h post injection (blowfly Lucilia caesar [3]; intrathoracic injection, 24 h post injection, n = 3): 2.67 ± 0.13 nmol/g | PD50 1 h post injection ([4]; 1 h post injection): 1.36 ± 0.08 nmol/g | PD50 24 h post injection ([4]; 24 h post injection): 1.11 ± 0.09 nmol/g | effect on aphid fitness ([5]; injection 3.4 nmol. g^−1, monitored over 7 days (Figure S1)): weak effect | aphids affected 24 h post injection ([5]; intra-abdominal injection, 3.4 nmol. g^−1 (46 nL of 0.25 mM), 24 h): 6.6% | paralytic effect on aphids by injection ([5]; intra-abdominal injection, 3.4 nmol. g^−1, 24 h): weak paralytic effect | toxicity by ingestion (L. caesar; fed at high doses in 50% sucrose (Figure S2)): active by ingestion | blowflies affected 24 h post ingestion (L. caesar; ingestion, 8 mg/mL (350 nmol. g^−1), 24 h): 60% | toxicity by ingestion (D. melanogaster): active by ingestion | toxicity by ingestion (A. mellifera): unaffected | toxicity by ingestion (A. pisum): unaffected | toxicity by ingestion (Sitophilus oryzae): unaffected | cytotoxicity, CCK-8 assay ([6]; S2 cells, 5 and 50 µM, 1 h and 24 h of incubation): not cytotoxic | Cytotoxicity ([6]; Table 2, this study: CCK-8 and LDH assays on S2 cells): No | cytotoxicity, LDH assay [7]: not cytotoxic | depolarization-induced increase in fluorescence intensity, less than in the control condition (S2 cells [8]; 30 min, DiBAC4(3), NMDG buffer): 33% | AUC of relative fluorescence after KCl application (S2 cells [8]; 60-300 s, mean ± SEM of n = 220 cells (n = 3), control 464 ± 35): 312 ± 23 | calcium mobilization (Tg response and calcium influx) (S2 cells [9]): No effect
